Test results from patent US9637473B2, “Acrylamide derivatives as antimalarial agents” (priority 2013, dated 2017).
Where a name gives a salt, the structure may show the parent alone.

Each molecule was assayed on P. Falciparum NF54 (assay: Plasmodium falciparum in vitro assay ([3H]-hypoxanthine incorporation)). Settings: Plasmodium falciparum, Erythrocyte, P. Falciparum NF54, erythrocytic stages in human red blood cells, 50% human serum.
Type: cell-based
Procedure, shortened: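 This in vitro antimalarial assay used P. falciparum erythrocytic stages cultured in human erythrocytes and measured [3H]-hypoxanthine incorporation. Radioactivity on the dried filters, placed in plastic foil with 10 mL scintillation fluid, was counted in a Betaplate liquid scintillation counter. Sigmoidal inhibition curves built in Microsoft Excel gave the IC50.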

IC50 [µM]	SMILES
0.068	Cc1cc(Nc2ccc(CN(CCCN(C)C)C(=O)/C=C/c3ccc(C(F)(F)F)cc3)cc2)ccn1 [Example 166, (E)-N-(3-Dimethylamino-propyl)-N-[4-(2-methyl-pyridin-4-ylamino)-benzyl]-3-(4-trifluoromethyl-phenyl)-acrylamide]
0.084	Cc1cc(N(C)c2cncc(CN(C(=O)/C=C/c3ccc(C(F)(F)F)cc3)C3CCN(C(C)C)CC3)c2)ccn1 [Example 135, (E)-N-(1-Isopropyl-piperidin-4-yl)-N-{5-[methyl-(2-methyl-pyridin-4-yl)-amino]-pyridin-3-ylmethyl}-3-(4-trifluoromethyl-phenyl)-acrylamide formate]
0.412	O=C(/C=C/c1ccc(C(F)(F)F)cc1)N(Cc1ccc(Oc2ccncc2)cc1)C1CCN(C2CCCC2)CC1 [Example 207, (E)-N-(1-Cyclopentyl-piperidin-4-yl)-N-[4-(pyridin-4-yloxy)-benzyl]-3-(4-trifluoromethyl-phenyl)-acrylamide]
0.011	CN1CCC(N2CCC[C@@H](N(Cc3ccc(N(C)c4ccncc4)cc3)C(=O)/C=C/c3ccc(C(F)(F)F)cc3)C2)CC1 [Example 56, (R,E)-N-(4-(methyl(pyridin-4-yl)amino)benzyl)-N-(1′-methyl-[1,4′-bipiperidin]-3-yl)-3-(4-(trifluoromethyl)phenyl)acrylamide]
0.174	CN(c1ccncc1)c1ccc(CN(C(=O)/C=C/c2ccc(C(C)(C)C)cc2)C2CCN(Cc3ccccc3)CC2)cc1 [Example 144, (E)-N-(1-Benzyl-piperidin-4-yl)-3-(4-tert-butyl-phenyl)-N-[4-(methyl-pyridin-4-yl-amino)-benzyl]-acrylamide]
0.337	O=C(/C=C/c1ccc(C(F)(F)F)cc1)N(Cc1ccc(Nc2cc(C(F)(F)F)nc3c(C(F)(F)F)cccc23)cc1)C1CCN(C2CCCC2)CC1 [Example 89, (E)-N-[4-(2,8-Bis-trifluoromethyl-quinolin-4-ylamino)-benzyl]-N-(1-cyclopentyl-piperidin-4-yl)-3-(4-trifluoromethyl-phenyl)-acrylamide]
0.054	CN1CCC(N2CCC(N(Cc3ccc(N(C)c4ccncc4)cc3)C(=O)/C=C/c3ccc(C#N)cc3)CC2)CC1 [Example 179, (E)-3-(4-Cyano-phenyl)-N-(1′-methyl-[1,4′]bipiperidinyl-4-yl)-N-[4-(methyl-pyridin-4-yl-amino)-benzyl]-acrylamide]
0.152	CC(C)CCN1CCCCC(N(Cc2ccc(N(C)c3ccncc3)cc2)C(=O)/C=C/c2ccc(C(F)(F)F)cc2)C1 (racemic) [Example 72, (±)-(E)-N-(1-isopentylazepan-3-yl)-N-(4-(methyl(pyridin-4-yl)amino)benzyl)-3-(4-(trifluoromethyl)phenyl)acrylamide]
0.172	Cc1cc(Nc2ccc(CN(C(=O)/C=C/c3ccc(Cl)cc3)C(C)CN(C)C)cc2)ccn1 (centres unmarked) [Example 209, (E)-3-(4-Chloro-phenyl)-N-(2-dimethylamino-1-methyl-ethyl)-N-[4-(2-methyl-pyridin-4-ylamino)-benzyl]-acrylamide]
0.057	CN(C)CCN1CCC(N(Cc2ccc(N(C)c3ccncc3)cc2)C(=O)/C=C/c2ccc(C(F)(F)F)cc2)CC1 [Example 195, (E)-N-[1-(2-Dimethylamino-ethyl)-piperidin-4-yl]-N-[4-(methyl-pyridin-4-yl-amino)-benzyl]-3-(4-trifluoromethyl-phenyl)-acrylamide formate]
0.034	CN(c1ccncc1)c1ccc(CN(C(=O)/C=C/c2ccc(C(F)(F)F)cc2)[C@H]2CC[C@@H](N(C)C)CC2)cc1 [Example 191, (±)-cis-(E)-N-(4-Dimethylamino-cyclohexyl)-N-[4-(methyl-pyridin-4-yl-amino)-benzyl]-3-(4-trifluoromethyl-phenyl)-acrylamide]
0.047	Cc1cnccc1Nc1cncc(CN(C(=O)/C=C/c2ccc(C(F)(F)F)cc2)C2CCN(C(C)C)CC2)c1 [Example 137, (E)-N-(1-Isopropyl-piperidin-4-yl)-N-[5-(3-methyl-pyridin-4-ylamino)-pyridin-3-ylmethyl]-3-(4-trifluoromethyl-phenyl)-acrylamide formate]
0.303	CC(C)N1CCC(N(Cc2cccc(Nc3ccncc3F)c2)C(=O)/C=C/c2ccc(C(F)(F)F)cc2)CC1 [Example 124, (E)-N-[3-(3-Fluoro-pyridin-4-ylamino)-benzyl]-N-(1-isopropyl-piperidin-4-yl)-3-(4-trifluoromethyl-phenyl)-acrylamide formate]
0.029	Cc1ccc(CN2CCC(N(Cc3ccc(N(C)c4ccncc4)cc3)C(=O)/C=C/c3ccc(C(F)(F)F)cc3)CC2)cc1 [Example 12, (E)-N-[1-(4-Methyl-benzyl)-piperidin-4-yl]-N-[4-(methyl-pyridin-4-yl-amino)-benzyl]-3-(4-trifluoromethyl-phenyl)-acrylamide]
0.328	Cc1ncc(CN2CCC(N(Cc3ccc(N(C)c4ccncc4)cc3)C(=O)/C=C/c3ccc(C(F)(F)F)cc3)CC2)cn1 [Example 24, (E)-N-[4-(Methyl-pyridin-4-yl-amino)-benzyl]-N-[1-(2-methyl-pyrimidin-5-ylmethyl)-piperidin-4-yl]-3-(4-trifluoromethyl-phenyl)-acrylamide]
0.42	O=C(/C=C/c1ccc(C(F)(F)F)cc1)N(Cc1ccc(Nc2ccncn2)nc1)C1CCN(C2CCCC2)CC1 [Example 107, (E)-N-(1-Cyclopentyl-piperidin-4-yl)-N-[6-(pyrimidin-4-ylamino)-pyridin-3-ylmethyl]-3-(4-trifluoromethyl-phenyl)-acrylamide]
0.041	CN(c1ccncc1)c1ccc(CN(C(=O)/C=C/c2ccc(C(F)(F)F)cc2)C2CC3(C2)CN(C2CCCC2)C3)cc1 [Example 74, (E)-N-(2-cyclopentyl-2-azaspiro[3.3]heptan-6-yl)-N-(4-(methyl(pyridin-4-yl)amino)benzyl)-3-(4-(trifluoromethyl)phenyl)acrylamide]

SMILES	IC50 [µM]
Cc1ccc(/C=C/C(=O)N(Cc2ccc(N(C)c3ccncc3)cc2)C2CCN(Cc3ccccc3)CC2)cc1 [Example 158, (E)-N-(1-Benzyl-piperidin-4-yl)-N-[4-(methyl-pyridin-4-yl-amino)-benzyl]-3-p-tolyl-acrylamide]	0.19
Cc1nc(C)c(/C=C/C(=O)N(Cc2ccc(N(C)c3ccncc3)cc2)C2CCN(Cc3ccccc3)CC2)s1 [Example 163, (E)-N-(1-Benzyl-piperidin-4-yl)-3-(2,4-dimethyl-thiazol-5-yl)-N-[4-(methyl-pyridin-4-yl-amino)-benzyl]-acrylamide]	0.289
COc1cccc(/C=C/C(=O)N(Cc2ccc(N(C)c3ccncc3)cc2)C2CCN(Cc3ccccc3)CC2)c1 [Example 150, (E)-N-(1-Benzyl-piperidin-4-yl)-3-(3-methoxy-phenyl)-N-[4-(methyl-pyridin-4-yl-amino)-benzyl]-acrylamide]	0.293
